Assay results reported in article PMC3767334, “Interaction of 5′-Guanosine Monophosphate with Organotin(IV) Moieties: Synthesis, Structural Characterization, and Anti-Inflammatory Activity” (ISRN Organic Chemistry, 2012).

How the values were obtained:
paw edema = experiment: Anti-inflammatory activity (% inhibition in paw edema); assay type: in vivo; conditions: dose 40 mg/kg p.o.; albino rats
Excerpt: (§1) Solvents were dried and distilled before use. Dimethyltin(IV) dichloride di-n-butyltin(IV) dichloride, diphenyltin(IV) dichloride, trimethyltin(IV) chloride, tri-i-propyltin(IV) chloride, tri-n-butyltin(IV) chloride, triphenyltin(IV) chloride (E. Merck), di-n-octyltin(IV) oxide (Aldrich), and disodium salt of 5′-guanosine monophosphate (Na2(5′-GMP) (Sigma) were used as received. The elemental analysis, namely, melting points, carbon, hydrogen, nitrogen, and tin of the synthesized compounds was determined on the same instruments as reported earlier. Infrared and far-infrared spectra were recorded on a Perkin-Elmer 1600 series FT IR spectrophotometer in the range 4000–400 cm^−1 from KBr discs and 600–200 cm^−1 from CsI discs. ^1H and ^13C spectra were recorded on a Bruker DRX 300 (300 MHz FT NMR) spectrometer at the Central Drug Research Institute, Lucknow, India, using CD3OD as solvent and TMS as the internal standard. ^119Sn NMR spectra were recorded on a Bruker DRX 500 (500 MHz FT NMR) spectrometer at the Institute Instrumentation Centre, IIT, Roorkee, India, using DMSO-d6/CD3OD as solvent and TMS as the internal standard. ^119Sn Mössbauer spectra were recorded on Mössbauer spectrometer model MS-900 according to the procedure reported previously at the Department of Chemistry and Physics, University of The District of Columbia, Washington, DC, USA [21, 22]. Toxicity (LD50: average lethal dose at 50% survival) and anti-inflammatory activity of the studied derivatives were determined according to the procedures reported earlier.

[1] = Solubility in organic solvents (observation); assay type: physicochemical; conditions: for Solubility in DMSO-d6/CDCl3/CD3OD: NMR solvents DMSO-d6/CDCl3/CD3OD
Excerpt: All of the synthesized compounds are obtained as white or cream solid in 65–81% yield and stable towards air and moisture. They are insoluble in common organic solvents but sparingly soluble in DMSO. They decomposed at high temperature instead of melting, which indicates their polymeric nature. […] In the entire studied derivatives one molecule of water is also involved.
The chemical shifts of various magnetically nonequivalent carbons of (5′-GMP)^2− have been assigned in the studied derivatives. The C-5′ resonances in organotin(IV) derivatives of (5′-GMP)^2− are shifted towards downfield upon complexation as compared with that of ligand, which indicate the involvement of phosphate group (PO3)^2− in bonding with tin. While all other carbon shifts remains almost unchanged, the ^13C chemical shifts of alkyl and phenyl groups attached to tin are also observed in the expected regions which are consistent with previously reported values. The characteristic resonances in the ^119Sn NMR spectra of some of the studied derivatives, recorded in dimethylsulfoxide-d 6, are also presented in Table 2. […] The ^119Sn chemical shifts in iso-Pr3Sn(IV), Ph2Sn(IV), and Ph3Sn(IV) derivatives of (5′-GMP)^2− are observed at δ −256, −225, and −226 ppm, which are characteristic of the five-coordinated organotin(IV) derivatives.

albino rats = assay type: in vivo; conditions: p.o.
Excerpt: as §1

Molecule	Anti-inflammatory activity % inhibition (paw edema) (paw edema)	Solubility in DMSO-d6 [1]	Solubility in DMSO-d6/CDCl3/CD3OD [1]	Toxicity LD50 (albino rats)
CCCCC1C(=O)N(c2ccccc2)N(c2ccccc2)C1=O [Phenyl butazone, reference compound]	34.56%			
[(Me3Sn)2(5′-GMP)·H2O]n		poor solubility	extremely low solubility	
[(Ph3Sn)2(5′-GMP)·H2O]n	20.63%			>400 mg/kg
[(i-Pr3Sn)2(5′-GMP)·H2O]n				>400 mg/kg
[(n-Bu3Sn)2(5′-GMP)·H2O]n	17.34%	poor solubility		>400 mg/kg
[Me2Sn(5′-GMP)·H2O]n	18.12%	poor solubility		>400 mg/kg
[Ph2Sn(5′-GMP)·H2O]n	19.22%			>400 mg/kg
[n-Bu2Sn(5′-GMP)·H2O]n	16.32%	poor solubility	extremely low solubility	>400 mg/kg
